Among the test systems are CCRF-CEM leukemia; HOP-92 NSCLC; RPMI-8226 leukemia; HCT-116 colon; SN12C renal; NCI/ADR-RES ovarian; OVCAR-8 ovarian; EKVX NSCLC; ACHN renal; U251 CNS; NCI-H23 lung; BT-549 breast; SK-OV-3 ovarian; SNB-75 CNS; NCI-H460 lung; MDA-MB-231 breast; LOX IMVI melanoma.
Test in all cases: inhibition of tumour cell growth, NCI panel, 48 h

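Cultured in 96-well plates, cells were exposed to test compound for 48 hours across five concentrations. The concentration for full growth arrest is given as TGI.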

As to `C=CC(CBr)CCC(Br)C(C)(C)Br` (stereo unspecified), the TGI in the assay on CCRF-CEM leukemia, in the assay with HOP-92 NSCLC, with RPMI-8226 leukemia, in the assay with HCT-116 colon, with SN12C renal and with NCI/ADR-RES ovarian was more than 10 µM in each case. Further, the TGI in the assay with OVCAR-8 ovarian, with EKVX NSCLC, in the assay with ACHN renal, in the assay on U251 CNS, in the assay with NCI-H23 lung and in the assay with BT-549 breast was more than 10 µM in each case. For the same compound, the TGI with SK-OV-3 ovarian, in the assay on SNB-75 CNS, in the assay with NCI-H460 lung and in the assay on MDA-MB-231 breast was more than 10 µM in each case.

As for `COc1ccc2c(c1)CCN=C2Cc1ccccc1CCCl`, the TGI is more than 100 µM in the assay with CCRF-CEM leukemia; more than 100 µM with HOP-92 NSCLC; 46.7 µM in the assay on RPMI-8226 leukemia; more than 100 µM in the assay on HCT-116 colon; 72.5 µM in the assay with SN12C renal; 64.9 µM in the assay with NCI/ADR-RES ovarian. The TGI was 67.9 µM with OVCAR-8 ovarian; more than 100 µM in the assay with EKVX NSCLC; 79.2 µM in the assay on ACHN renal; more than 100 µM in the assay on U251 CNS; 81.8 µM in the assay on NCI-H23 lung; more than 100 µM in the assay on BT-549 breast. Moreover, the TGI in the assay on SK-OV-3 ovarian was more than 100 µM; with SNB-75 CNS it was more than 100 µM; in the assay with NCI-H460 lung, 38.8 µM; in the assay with MDA-MB-231 breast, 44.1 µM.

For `NC1OC(COC(=O)c2ccccc2)C(O)C(OC(=O)c2ccccc2)C1OC(=O)c1ccccc1` (stereo unspecified), the TGI in the assay with HOP-92 NSCLC is 59.1 µM; in the assay on RPMI-8226 leukemia, more than 100 µM; with HCT-116 colon it was 34.2 µM; in the assay on SN12C renal, 50.9 µM; in the assay on NCI/ADR-RES ovarian, more than 100 µM; in the assay on OVCAR-8 ovarian, 37.8 µM. Moreover, the TGI in the assay with EKVX NSCLC was 60.2 µM; in the assay with ACHN renal, 56 µM; in the assay on U251 CNS, 34.2 µM; in the assay with LOX IMVI melanoma, 34.7 µM; in the assay on NCI-H23 lung, 61.9 µM; in the assay on BT-549 breast it was 40.6 µM. Besides, the TGI was more than 100 µM in the assay on SK-OV-3 ovarian, 39.8 µM in the assay with SNB-75 CNS, 27.9 µM with NCI-H460 lung and 45.9 µM in the assay on MDA-MB-231 breast.

For `Cc1cc(=O)oc2cc(SC(=O)N(C)C)ccc12`, the TGI in the assay with HOP-92 NSCLC, in the assay with RPMI-8226 leukemia, in the assay with HCT-116 colon, in the assay with SN12C renal, with NCI/ADR-RES ovarian and with OVCAR-8 ovarian was more than 100 µM in each case. The TGI in the assay on EKVX NSCLC, with ACHN renal, with U251 CNS, in the assay with LOX IMVI melanoma, with NCI-H23 lung and in the assay on BT-549 breast was more than 100 µM in each case. The TGI in the assay on SK-OV-3 ovarian, with SNB-75 CNS, in the assay on NCI-H460 lung and in the assay with MDA-MB-231 breast was more than 100 µM throughout.

On to `Nc1ccc(Oc2ccc(C3(c4ccc(Oc5ccc(N)cc5)cc4)C4CC5C6CC7CC5C3C(C7)C6C4)cc2)cc1`, for which the TGI is more than 100 µM in the assay on CCRF-CEM leukemia; 49 µM in the assay with HOP-92 NSCLC; more than 100 µM in the assay with RPMI-8226 leukemia; more than 100 µM in the assay on HCT-116 colon; 98.5 µM with SN12C renal; more than 100 µM with NCI/ADR-RES ovarian. Further, the TGI in the assay on OVCAR-8 ovarian is more than 100 µM; in the assay with EKVX NSCLC it was more than 100 µM; with ACHN renal it was more than 100 µM; in the assay on U251 CNS it was more than 70 µM; in the assay with LOX IMVI melanoma, more than 66.4 µM; with NCI-H23 lung, more than 95.3 µM. Moreover, the TGI in the assay on BT-549 breast is more than 100 µM; in the assay with SNB-75 CNS it was more than 100 µM; in the assay with NCI-H460 lung, more than 100 µM; in the assay with MDA-MB-231 breast it was 77 µM.

Regarding `CCN1C(=S)n2cccc2C1CC(=O)c1ccc(Cl)cc1` (stereo unspecified), the TGI in the assay on HOP-92 NSCLC, in the assay with RPMI-8226 leukemia, in the assay with HCT-116 colon, in the assay on SN12C renal, in the assay with NCI/ADR-RES ovarian and with OVCAR-8 ovarian was more than 100 µM in each case. Further, the TGI with EKVX NSCLC, in the assay with ACHN renal, in the assay with U251 CNS, in the assay on LOX IMVI melanoma, in the assay with NCI-H23 lung and in the assay on BT-549 breast was more than 100 µM in each case. The TGI in the assay with SK-OV-3 ovarian, in the assay on SNB-75 CNS, with NCI-H460 lung and in the assay with MDA-MB-231 breast was more than 100 µM throughout.

`N#CC1(C#N)NC(c2cccnc2)C(C#N)(C#N)NC1c1cccnc1` (stereo unspecified): the TGI with CCRF-CEM leukemia, with HOP-92 NSCLC, in the assay with RPMI-8226 leukemia, in the assay with HCT-116 colon, in the assay on SN12C renal and in the assay with NCI/ADR-RES ovarian was more than 100 µM each time. The TGI with OVCAR-8 ovarian, in the assay on EKVX NSCLC, in the assay on U251 CNS, with LOX IMVI melanoma, in the assay with NCI-H23 lung and in the assay on BT-549 breast was more than 100 µM throughout. Further, the TGI in the assay on SK-OV-3 ovarian, in the assay on SNB-75 CNS and in the assay on MDA-MB-231 breast was more than 100 µM in each case.

Values taken from PubChem BioAssay (NCI).
